Measured values: patent US10550094B2, “Compounds having antioxidant activity against free radicals and anti-inflammatory activity, and corresponding pharmaceutical or cosmetic compositions for skin care” (GIULIANI S.P.A., priority 2015, dated 2020)

Test system: human keratinocytes NCTC2544
Assay: MTT assay with induced oxidative stress (H2O2)
Format: cell-based
Conditions: 16 h pretreatment, then 1 mM H2O2, NCTC2544
Protocol: The immortalized line of human keratinocytes NCTC2544 is used (Perry V. P. et al., 1957), cultured in sterile flasks ([…]), incubated at 37° C. in a humid atmosphere at 5% CO2 in RPMI culture medium added with bovine fetal serum (FBS), 2 mm glutamine, 1% non-essential amino acids, in the presence of 1% penicillin and streptomycin. The 1:3 split is done every 2 days upon achieving the monolayer by washing with 1×PBS (phosphate buffer without Ca^2+ and Mg^2+) and detachment of cells with a trypsin-EDTA solution at 37° C. for 2 minutes. The cells were kept in culture in 25 cm^3 sterile flasks and incubated at 37° C. in a humid atmosphere at 5% CO2.
Negative control: untreated cells in RPMI medium added to 2.5% fetal bovine serum (FBS), 1% non-essential amino acids (NEAA), 1% of a penicillin and streptomycin mixture (Pen-Strep Mix), and kept in (96 well) 25 cm^2 culture plates at 37° C. and 5% CO2 (in the dark).
Positive control: cells treated for 2 h with 1 mM hydrogen peroxide in RPMI medium added to 2.5% fetal bovine serum (FBS), 1% non-essential amino acids (NEAA), 1% of a penicillin and streptomycin mixture (Pen-Strep Mix), and kept in (96 well) 25 cm^2 culture plates at 37° C. and 5% CO2 (in the dark).
MTT with Induced Oxidative Stress-NCTC 2544
Through this method it is possible to study the protective effects of such compounds on cells then subjected to oxidative stress. The induction of oxidative stress is carried out by incubation with hydrogen peroxide, an agent inducing the production of oxidative damage in cells through the formation of ROS. Any protective effects can be determined through the evaluation of the cell viability post oxidative stress of cells pretreated/pre-exposed to the active compounds to be tested, compared to cells subjected to the same oxidative stress. A greater cell viability will correspond to a protective effect of the compounds tested.
The assay was conducted in accordance with the method described by Coda and collaborators (Coda et al., 2012), with some changes. Human keratinocytes NCTC2544 were seeded in a 96-well plate at the density of 5*10^4 cells/well and incubated at 37° C. until reaching about 80% confluence.
Then, the cells were incubated for 16 hours with the active compounds to be tested and the respective controls at the following concentrations: 13.5 μM and 27 μM. The dilutions were prepared starting from 1000× stock in DMSO, sterile-filtered and using RPMI medium added to 2.5% fetal bovine serum (FBS), 1% non-essential amino acids (NEAA), 1% of a penicillin and streptomycin mixture (Pen-Strep Mix). Cells treated with H2O2 1 mM were used as a positive control; cells kept in culture medium alone (RPMI 2.5% FCS) were used instead as a negative control. After 16 hours of pretreatment, the cells were washed with PBS 1× and incubated for 90 minutes with a […] H2O2 solution (Sigma-Aldrich, St. Louis, Mo., USA) in serum-free medium, in the dark, at 37° C. and 5% CO2.
After the step of induction of the oxidative stress, the cell viability of the samples of the above compounds of the invention was evaluated in accordance with the method described by Mosmann T. Rapid colorimetric assay for cellular growth and survival: application to proliferation and cytotoxicity assays. J Immunol Methods. 1983 Dec. 16; 65(1-2):55-63.
The data were expressed as percentage of cell viability compared with control cells (ctr) not stressed, according to the following formula: % cell viability/ctr=(Abs sample/Abs ctr)·100
All the assays were performed at least two times in duplicate.

Structure (SMILES) | % protection (13.5 μM) [%] | % protection (27 μM) [%] | % protection (27 μM, listed as tetracetyl sorbityl furfural) | % protection (13.5 μM, listed as xylitil furfural)
OCC(O)C1OC(c2ccccc2)OC(CO)C1O (stereo not drawn) [Sorbityl benzal, sorbityl benzal] | 11.673 | 20.439 |  | 
COc1cc(C2OC(CO)C(O)C(C(O)CO)O2)ccc1O (stereo not drawn) [Sorbityl vanillinal, sorbityl vanillinal] | 11.320 | 22.766 |  | 
O=C(OCC1OC(c2ccco2)OC(C(COC(=O)c2ccccc2)OC(=O)c2ccccc2)C1OC(=O)c1ccccc1)c1ccccc1 (stereo not drawn) [Tetrabenzoyl sorbityl furfural, tetrabenzoyl sorbityl furfural] | 36.035 | 8.725 |  | 
CC(=O)OCC1OC(c2ccco2)OC(C(COC(C)=O)OC(C)=O)C1OC(C)=O (stereo not drawn) [Tetracetyl sorbityl furfural, tetracetyl sorbityl furfural] | 34.385 | 49.201 | remarkable | 
OCC1OC(c2ccco2)OC(CO)C1O (stereo not drawn) [Xylitil furfural, xylitil furfural] | 59.554 | 33.651 |  | remarkable
